Data on three molecules can be found in patent US3989466.

Structures are written as SMILES.

Data set [1] can be described thus: not told for nicotinamide; caffeine D in same system by direct partitioning in a separatory funnel with UV absorbance.

In the case of `NC(=O)c1cccnc1`, the “partition coefficient (concentration ratio)” value in data set [1] is reported as 0.19 concentration ratio (mg/ml per mg/ml).
With `Oc1ccc(N=Nc2ccccc2)cc1`, in the data set “not told”, the “partition coefficient (concentration ratio)” value was “ca. 0.50 concentration ratio (mg/ml per mg/ml)”.
The same measure, in the same setting: in the case of `CC1(C)Nc2cccc3c(N=Nc4ccc(N=Nc5ccccc5)c5ccccc45)ccc(c23)N1` it was “ca. 2.0 concentration ratio (mg/ml per mg/ml)”.
